Results from US20060073112A1, “Method of preventing hydrogen sulfide odor generation in an aqueous medium” (priority 2004, published 2006).

Tests used:
[1] = tested on: sulfate reducing bacteria; experiment: Inhibition of hydrogen sulfide generation by sulfate reducers in serum bottles; assay type: cell-based; settings: 48 hours incubation; for Sulfide Formation Level Sample A: replicate bottle A; for Sulfide Formation Level Sample B: replicate bottle B; for Sulfide Formation Level Sample C: replicate bottle C
Protocol: The test protocol was as follows: 100 mL serum bottles were filled with synthetic nutrient medium, then stoppered, capped, and autoclaved, and allowed to cool to at least 35° C. Using a 1 mL syringe with needle, the treatment was added at desired dosages to prepared serum bottles (triplicates of each dosage). No treatment was added for baseline controls. Nine baseline serum bottles were used. Next, a 10^10 cells/ml concentration of the sulfate reducers was prepared (using autoclaved synthetic nutrient medium) inside an anaerobic chamber. Using a 1 ml syringe with needle, 0.1 ml of the prepared sulfate reducers culture was added to each serum bottle. The bottles were then incubated at the desired temperature for 48 hours. The baseline dissolved sulfide levels were then measured to determine if the samples were ready for efficacy analysis. Using a 30 mL syringe with needle, 30 mL of sample was removed from each serum bottle. About 25 mL of the sample was added to a 30 mL bottle containing 0.125 mL zinc acetate solution, followed by adding 1 mL of 1N NaOH. The sulfide in the fixed sample was then measured. If the control sample sulfide levels were >10 ppm, then the whole series of test vials was evaluated for generated sulfide. The remaining 5 mL of sample in the syringe was used for a final pH determination.

[2] = tested on: sulfate reducing bacteria; experiment: Sulfate reducing bacteria viability (SRB/ml) after treatment; assay type: cell-based
Protocol: The test protocol was as follows: 100 mL serum bottles were filled with synthetic nutrient medium, then stoppered, capped, and autoclaved, and allowed to cool to at least 35° C. Using a 1 mL syringe with needle, the treatment was added at desired dosages to prepared serum bottles (triplicates of each dosage). No treatment was added for baseline controls. Nine baseline serum bottles were used.
Next, a 10^10 cells/ml concentration of the sulfate reducers was prepared (using autoclaved synthetic nutrient medium) inside an anaerobic chamber. Using a 1 ml syringe with needle, 0.1 ml of the prepared sulfate reducers culture was added to each serum bottle. The bottles were then incubated at the desired temperature for 48 hours.

Structure (SMILES)	Sulfide Formation Level Sample A ([1]; inhibitor dose conc. 25 ppm)	Sulfide Formation Level Sample B ([1]; inhibitor dose conc. 25 ppm)	Sulfide Formation Level Sample C ([1]; inhibitor dose conc. 25 ppm)	Sulfide Formation Level Sample A ([1]; inhibitor dose conc. 50 ppm)	Sulfide Formation Level Sample B ([1]; inhibitor dose conc. 50 ppm)	Sulfide Formation Level Sample C ([1]; inhibitor dose conc. 50 ppm)	Sulfide Formation Level Sample A ([1]; inhibitor dose conc. 100 ppm)	Sulfide Formation Level Sample B ([1]; inhibitor dose conc. 100 ppm)	Sulfide Formation Level Sample C ([1]; inhibitor dose conc. 100 ppm)	SRB/ml ([2]; inhibitor dose conc. 25 ppm)	SRB/ml ([2]; inhibitor dose conc. 50 ppm)	SRB/ml ([2]; inhibitor dose conc. 100 ppm)
Sc1nc2ccccc2s1 [2-mercaptobenzothiazole]	0 (0 = <0.1 ppm Sulfide)	0 (0 = <0.1 ppm Sulfide)	0 (0 = <0.1 ppm Sulfide)	0 (0 = <0.1 ppm Sulfide)	0 (0 = <0.1 ppm Sulfide)	0 (0 = <0.1 ppm Sulfide)	0 (0 = <0.1 ppm Sulfide)	0 (0 = <0.1 ppm Sulfide)	0 (0 = <0.1 ppm Sulfide)	10,000 SRB/ml	100,000 SRB/ml	10,000 SRB/ml
CC[C@@]1([C@@H]2O[C@@H]([C@H]3O[C@@](O)(CO)[C@H](C)C[C@@H]3C)C[C@@H]2C)CC[C@H]([C@]2(C)CC[C@]3(C[C@H](O)[C@@H](C)[C@@H]([C@@H](C)[C@@H](OC)[C@H](C)C(=O)O)O3)O2)O1 [monensin, reference compound]	1+ (1+ = 0.1-1.0 ppm Sulfide)	1+ (1+ = 0.1-1.0 ppm Sulfide)	0 (0 = <0.1 ppm Sulfide)	0 (0 = <0.1 ppm Sulfide)	0 (0 = <0.1 ppm Sulfide)	0 (0 = <0.1 ppm Sulfide)	0 (0 = <0.1 ppm Sulfide)	0 (0 = <0.1 ppm Sulfide)	0 (0 = <0.1 ppm Sulfide)	1,000,000 SRB/ml	100,000 SRB/ml	10,000 SRB/ml
NCCO [monoethanolamine]	1+ (1+ = 0.1-1.0 ppm Sulfide)	1+ (1+ = 0.1-1.0 ppm Sulfide)	1+ (1+ = 0.1-1.0 ppm Sulfide)	1+ (1+ = 0.1-1.0 ppm Sulfide)	1+ (1+ = 0.1-1.0 ppm Sulfide)	0 (0 = <0.1 ppm Sulfide)	0 (0 = <0.1 ppm Sulfide)	0 (0 = <0.1 ppm Sulfide)	0 (0 = <0.1 ppm Sulfide)	100,000 SRB/ml	100,000 SRB/ml	100,000 SRB/ml
